Test [1] relates to PBMCs. Kind of test: Direct binding to PBMCs (immunocytochemistry, rosetting of coated beads). The conditions noted are these: immunocytochemistry or rosetting of coated beads.
For a further test, the system named is healthy PBMC's. Kind of test: PBMC activation, CD69 or CD71 by flow cytometry, normal human AB serum. Format: cell-based. The conditions noted are these: 40 μg/mL, 24 hours, RPMI plus 10% human AB serum. The procedure:
FIG. 2A-B are a series of graphs illustrating effects of the full length peptide P28R and the 6 amino acid central sequence (32230, FFVKLS, SEQ ID NO: 1) in culture medium containing normal human AB serum. Activation is determined as percentage of cells with enhanced marker CD69 or CD71 using flow cytometry. PBMCs were incubated with the peptides (40 μg/mL) for 24 hours in RPMI plus 10% human AB serum. FIG. 2A illustrates the results of two experiments (420 and 422) performed for each peptide. FIG. 2B illustrates the results of two experiments (424 and 426) performed for each peptide.
P28R (SEQ ID NO: 2) can stimulate PBMC's from healthy controls in short term cultures when RPMI plus 10% normal human AB serum is used as culture medium. Truncations of P28R were also assessed for their ability to activate PBMC's. PBMCs were incubated with the peptides (40 μg/mL) for 24 hours in RPMI plus 10% human AB serum. PBMC activation was measured as percent cells with enhanced expression of either CD69 (FIG. 2A) or CD71 (FIG. 2B) using flow cytometry. Two experiments were performed for each peptide.
A test for direct stimulatory effects on immune cells was performed.
(In general: A flow cytometer gives signals particle by particle.)

In test [2] the test system is PBMCs. Kind of test: PBMC activation (CD69) in culture medium containing cancer sera. Conditions: sera from dogs with cancer or human patients with cancer instead of normal AB serum. Format: cell-based. The procedure: FIG. 3 is a graph illustrating a comparison of the full length peptide P28R and the 6 amino acid “P28 core” sequence (32230, FFVKLS, SEQ ID NO: 1) in culture medium containing sera from two different cancer patients (“human ca serum 1” 430 and (“human ca serum 2” 432).
Additionally, P28R and P28 core were tested for their ability to alleviate immunosuppression in cancer cells.

The source of these data is patent publication US20210401926A1, “PHARMACEUTICAL FORMULATIONS OF PEPTIDE INHIBITORS” (CANIMGUIDE THERAPEUTICS AB, priority 2018, published 2021).

Where no end group is shown, it is not given here.

On to “biotinylated P28R: biotinylated P28R (KKLDTFFVKLSLFTER; also: biotinylated, site not given here)”, for which the “binding to PBMCs” value in the test on PBMCs [1] was “bind directly to PBMCs”.

“peptide 32251: truncation of P28R, SEQ ID NO: 4 (KKLDTFFPKLSLFTER; Peptide 32251)”: the “PBMC activation (enhanced expression of CD69 or CD71)” value with healthy PBMC's is “did not activate healthy PBMC's”.

Take FFVKLS (Peptide 32230): in the test with healthy PBMC's, the “PBMC activation (enhanced expression of CD69 or CD71)” value was “did not activate healthy PBMC's”. The “PBMC activation (enhanced expression of CD69)” value in the test with PBMCs [2] is “activated PBMCs”.
